In patent US20250340548A1, “KRAS G12C INHIBITORS” (Frontier Medicines Corporation, priority 2021, published 2025) one finds IC50 data, which are given here for one molecule.

The structures appear in SMILES notation.

The target of this assay is T1, KRAS G12C and cRAF (Homo sapiens, UniProt P01116, C118S/C51S/C80L/G12C).
T1 construct: truncated version comprising amino acids 1-169
In words: AlphaScreen inhibition of KRAS G12C (GMPPNP-loaded) and cRAF RBD binding. To be noted: KRAS G12C preloaded with GMPPNP, 0.5 nM KRAS G12C, 0.75 nM RBD, 19-20 h compound incubation, room temperature. Format: biochemical. The source says: The ability of compounds of Formula (I), Formula (I-1), Formula (I-2), Formula (II), Formula (II-1) and Formula (II-2), and pharmaceutically acceptable salts and/or isotopologues thereof, to inhibit activity of the GTP-bound form of KRAS G12C can be tested using methods such as the in vitro assay described in Examples 308 and 309 below. Example 308 describes determining, for various compounds, the half-maximal inhibition (IC50) of KRAS G12C loaded with GTP analogue GMPPNP from binding to cRaf, as the Ras-binding domain (RBD). […]
The AlphaScreen technology was used to determine IC50S for compound inhibition of KRAS G12C (present as the Cys-light (C51S, C80L and C118S), truncated version comprising amino acids 1-169) and cRAF interaction. […] A mixture of RBD and the AlphaScreen streptavidin donor and glutathione acceptor beads diluted in 25 mM Hepes, pH 7.4, 150 mM NaCl, 5 mM MgCl2, 0.01% TritonX-100 and 2% DMSO was then added at 10 ul/well and incubated for 60-90 minutes before the samples were read for emission at 570 nm after excitation of the donor beads at 680 nm. […] IC50S were determined using nonlinear regression fit of [inhibitor]vs. response (4 parameters).
A counter assay was also set up to rule out inhibitors of the AlphaScreen technology itself. […] Samples were read and analyzed as above.

Broadly, the IC50 is the point on the concentration scale where inhibition reaches its midpoint. Read a low IC50 as higher potency.

T1 sequence (P01116 1-169 isoform P01116-2 G12C/C51S/C80L/C118S): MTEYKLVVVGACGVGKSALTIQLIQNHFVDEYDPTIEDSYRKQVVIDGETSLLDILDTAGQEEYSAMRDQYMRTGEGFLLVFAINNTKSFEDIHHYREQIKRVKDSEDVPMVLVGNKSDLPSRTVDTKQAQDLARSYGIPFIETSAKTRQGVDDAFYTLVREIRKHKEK

For `Cc1noc(/C=C/C(=O)N2CC(CN(C)c3nc(OC[C@@]45CCCN4C[C@H](F)C5)nc4c(F)c(-c5cc(O)cc6cccc(Cl)c56)ncc34)C2)n1` [Example 98, (E)-1-(3-(((7-(8-chloro-3-hydroxynaphthalen-1-yl)-8-fluoro-2-(((2R,7aS)-2-fluorotetrahydro-1H-pyrrolizin-7a(5H)-yl)methoxy)pyrido[4,3-d]pyrimidin-4-yl)(methyl)amino)methyl)azetidin-1-yl)-3-(3-methyl-1,2,4-oxadiazol-5-yl)prop-2-en-1-one], the IC50 was below 10 nM.
